Experiment [1] has as its target T1, Human fibrinogen receptor (αIIbβ3) (Homo sapiens, UniProt P05106+P08514).
T1 construct: Human fibrinogen receptor (αIIbβ3) was purified from outdated platelets; from tissue; host or cells: outdated human platelets
Put plainly: Purified IIb/IIIa receptor assay (solid phase receptor assay, competition with biotinylated vitronectin). The format is binding. The note with it: read-out: IIb/IIIa IC50. Here is the method:
PURIFIED IIb/IIIa RECEPTOR ASSAY
Human fibrinogen receptor (αIIbβ3) was purified from outdated platelets. […] Biotinylated human vitronectin was prepared by coupling NHS-biotin from Pierce Chemical Company (Rockford, Ill.) to purified vitronectin as previously described. […] Anti-biotin antibody was obtained from Calbiochem (La Jolla, Calif.). Linbro microtiter plates were obtained from Flow Labs (McLean, Va.). ADP reagent was obtained from Sigma (St. Louis, Mo.).
(§1) Solid Phase Receptor Assays
(§2) The purified human fibrinogen receptor (αIIbβ3) was diluted from stock solutions to 1.0 μg/mL in Tris-buffered saline containing 1.0 mM Ca^++, Mg^++, and Mn^++, pH 7.4 (TBS^+++). The diluted receptor was immediately transferred to Linbro microtiter plates at 100 μL/well (100 ng receptor/well). The plates were sealed and incubated overnight at 4° C. to allow the receptor to bind to the wells. All remaining steps were at room temperature. The assay plates were emptied and 200 μL of 1% RIA grade BSA in TBS^+++ (TBS^+++/BSA) were added to block exposed plastic surfaces. Following a 2 hour incubation, the assay plates were washed with TBS^+++ using a 96 well plate washer. Logarithmic serial dilution of the test compound and controls were made starting at a stock concentration of 2 mM and using 2 nM biotinylated vitronectin in TBS^+++/BSA as the diluent. This premixing of labeled ligand with test (or control) ligand, and subsequent transfer of 50 μL aliquots to the assay plate was carried out with a CETUS Propette robot; the final concentration of the labeled ligand was 1 nM and the highest concentration of test compound was 1.0×10^−4 M. The competition occurred for two hours after which all wells were washed with a plate washer as before. Affinity purified horseradish peroxidase labeled goat anti-biotin antibody was diluted 1:3000 in TBS^+++/BSA and 125 μL were added to each well. After 30 minutes, the plates were washed and incubated with ODD/H2O2 substrate in 100 mM/L citrate buffer, pH 5.0. The plate was read with a microtiter plate reader at a wavelength of 450 nm and when the maximum-binding control wells reached an absorbance of about 1.0, the final A450 were recorded for analysis. The data were analyzed using a macro written for use with the EXCEL™ spreadsheet program. The mean, standard deviation, and % CV were determined for duplicate concentrations. The mean A450 values were normalized to the mean of four maximum-binding controls (no competitor added)(B-MAX). The normalized values were subjected to a four parameter curve fit algorithm, [Robard et al., Int.

The target in experiment [2] is T2, Human vitronectin receptor (αvβ3) (Homo sapiens, UniProt P05106+P06756).
T2 construct: Human vitronectin receptor (αvβ3) was purified from human placenta; from tissue; host or cells: human placenta
As to the kind of experiment: Vitronectin adhesion assay (solid phase receptor assay, competition with biotinylated vitronectin). It counts as binding. The note with it: read-out: AvB3 IC50. Here is the method:
VITRONECTIN ADHESION ASSAY
Assay buffer, OPD substrate tablets, and RIA grade BSA were obtained from Sigma (St. Louis, Mo.). Anti-biotin antibody was obtained from Calbiochem (La Jolla, Calif.). Linbro microtiter plates were obtained from Flow Labs (McLean, Va.). ADP reagent was obtained from Sigma (St. Louis, Mo.).
as §1
as §2, with “vitronectin” for “fibrinogen”, “(αvβ3)” for “(αIIbβ3)”, “TBS^+++(TBS^+++/BSA)” for “TBS^+++ (TBS^+++/BSA)”, “OPD/H2O2” for “ODD/H2O2”, “Citrate” for “citrate”, “algorithm [Rodbard” for “algorithm, [Robard”

Structures can show the parent of a compound that is named as a salt.

`N=C(N)Nc1cc(C(=O)O)cc(C(=O)NCC(=O)NC(CC(=O)O)c2cccnc2)c1` (stereo not drawn) [Example 289, β-[[2-[[[3-[(aminoiminomethyl)amino]-5-carboxyphenyl]carbonyl]amino]acetyl]amino]pyridine-3-propanoic acid, bis(trifluoroacetate)salt]: the IC50 was 621 nM in experiment [1] and 0.9 nM in experiment [2].

With `N=C(N)Nc1cccc(C(=O)NCC(=O)NC(CC(=O)O)C(=O)NCCO)c1` (racemic) [Example 89, (±)3-[[2-[[[3-[(aminoiminomethyl)amino]phenyl]carbonyl]amino]acetyl]amino]-4-[(2-hydroxyethyl)amino]-4-oxobutanoic acid, trifluoroacetate salt], the IC50 in experiment [1] was determined as 9830 nM; in experiment [2] it was 1240 nM.

Take `O=C(O)CC(NC(=O)CNC(=O)c1cccc(NC2=NCCC2)c1)c1cc(Cl)cc(Cl)c1` (racemic) [Example 203, (±)β-[[2-[[[3-[(3,4-dihydro-2H-pyrrol-5-yl)amino]phenyl]carbonyl]amino]acetyl]amino]-3,5-dichlorobenzenepropanoic acid, trifluoroacetate salt]: the IC50 amounted to 650 nM in experiment [1] and 3.56 nM in experiment [2].

Consider `CCOC(=O)NC(=S)Nc1cccc(C(=O)NCC(=O)NC(CC(=O)O)c2cc(Cl)cc(Cl)c2)c1` (stereo not drawn) [Example 240, 3,5-dichloro-β-[[2-[[[3-[[[(ethoxycarbonyl)amino]thioxomethyl]amino]phenyl]carbonyl]amino]acetyl]amino]benzenepropanoic acid], for which the values for the IC50 in experiment [1] and in experiment [2] were 76400 nM and 49400 nM, respectively.

On to `O=C(O)CC(NC(=O)CNC(=O)c1cccc(Nc2cc(=O)[nH]c(=O)[nH]2)c1)c1cc(Cl)cc(Cl)c1` (stereo not drawn) [Example 284, 3,5-dichloro-β-[[2-[[[3-[[1,2,3,4-tetrahydro-2,4-dioxopyrimidin-6-yl)amino]phenyl]carbonyl]amino]acetyl]amino]benzenepropanoic acid], for which the IC50 in experiment [1] is 18400 nM; in experiment [2], 195 nM.

As to `O=C(O)CC(NC(=O)CNC(=O)c1cccc(NC2=NCCCC2)c1)c1cc(Cl)cc(Cl)c1` (racemic) [Example 205, (±)3,5-dichloro-β-[[2-[[[3-[(2,3,4,5-tetrahydropyridin-6-yl)amino]phenyl]carbonyl]amino]acetyl]amino]benzenepropanoic acid, trifluoroacetate salt], the figures for the IC50 in experiment [1] and in experiment [2] were 1240 nM and 1.68 nM, respectively.

For the molecule `CCOC(=O)CC(NC(=O)CNC(=O)c1cccc(NC(N)=S)c1)c1cccnc1` (stereo not drawn) [Example 113, ethyl β-[[2-[[[3-[(aminothioxomethyl)amino]phenyl]carbonyl]amino]acetyl]amino]pyridine-3-propanoate, trifluoroacetate salt], the IC50 is no less than 100000 nM in experiment [1] and 276 nM in experiment [2].

`N=C(N)Nc1cc(NC(=O)C(F)(F)F)cc(C(=O)NCC(=O)NC(CC(=O)O)c2cc(Cl)cc(Cl)c2)c1` (stereo not drawn) [Example 292, β-[[2-[[[3-[(aminoiminomethyl)amino]-5-(trifluoroacetyl)amino]phenyl]carbonyl]amino]acetyl]amino]-3,5-dichlorobenzenepropanoic acid, trifluoroacetate salt]: the IC50 in experiment [1] is 337 nM; in experiment [2], 3.55 nM.

Consider `C#C[C@H](CC(=O)OCC)NC(=O)CNC(=O)c1cccc(NC(=N)N)c1` [Example 58, ethyl 3S-[[2-[[[3-[(aminoiminomethyl)amino]phenyl)carbonyl]amino]acetyl]amino]-4-pentynoate, trifluoroacetate salt], for which the IC50 came out at 5740 nM in experiment [1] and 162 nM in experiment [2].

Regarding `N=C(N)Nc1cccc(C(=O)NCC(=O)NC(CC(=O)O)c2ncc[nH]2)c1` (racemic) [Example 364, (±)β-[[2-[[[3-[(aminoiminomethyl)amino]phenyl]carbonyl]amino]acetyl]amino]-1H-imidazole-2-propanoic acid, tris(trifluoroacetate)salt], the IC50 in experiment [1] came out at 223 nM; in experiment [2] it was 3.58 nM.

As to `CCOC(=O)CC(NC(=O)CNC(=O)c1cccc(NC(N)=S)c1)c1ccccc1` (stereo not drawn) [Example 116, ethyl β-[[2-[[[3-[(aminothioxomethyl)amino]phenyl]carbonyl]amino]acetyl]amino]benzenepropanoate], the IC50 is greater than 100000 nM in experiment [1] and 15500 nM in experiment [2].

For the molecule `O=C(O)CC(NC(=O)CNC(=O)c1cccc(Nc2nc3ccccc3o2)c1)c1cccnc1` (stereo not drawn) [Example 286, β-[[2-[[[3-[[benzoxazol-2-yl)amino]phenyl]carbonyl]amino]acetyl]amino]pyridine-3-propanoic acid, trifluoroacetate salt], the IC50 in experiment [1] is 8090 nM; in experiment [2], 413 nM.

Take `N=C(N)Nc1cccc(C(=O)NCC(=O)NC(CC(=O)O)c2cc(F)cc(Br)c2)c1` (racemic) [Example 209, (±)β-[[2-[[[3-[(aminoiminomethyl)amino]phenyl]carbonyl]amino]acetyl]amino]-3-bromo-5-fluorobenzenepropanoic acid, trifluoroacetate salt]: the IC50 in experiment [1] stood at 140 nM; in experiment [2], 0.83 nM.

Turning to `N=C(N)Nc1cccc(C(=O)NCC(=O)NC(CC(=O)O)CC(=O)Nc2cc(Cl)cc(Cl)c2)c1` (stereo not shown) [Example 288, 3-[[2-[[[3-[(aminoiminomethyl)amino]phenyl]carbonyl]amino]acetyl]amino)-5-[(3,5-dichlorophenyl)amino]-5-oxopentanoic acid, trifluoroacetate salt], the IC50 in experiment [1] was determined as 1060 nM; in experiment [2] it was 8.62 nM.

In the case of `COc1cc(OC)cc(C(CC(=O)O)NC(=O)CNC(=O)c2cccc(NC(=N)N)c2)c1` (racemic) [Example 195, (±)β-[[2-[[[3-[(aminoiminomethyl)amino]phenyl]carbonyl]amino]acetyl]amino]-3,5-dimethoxybenzenepropanoic acid, trifluoroacetate salt], the figures for the IC50 in experiment [1] and in experiment [2] were 98 nM and 1.09 nM, respectively.

In the case of `O=C(CNC(=O)c1cccc(NC2=NCCCN2)c1)NC(CC(=O)OCCOCCOCCOCCO)c1cc(Cl)cc(Cl)c1` (racemic) [Example 217, (±)[2-[2-[2-(2-hydroxyethoxy)ethoxy]ethoxy]ethyl]3,5-dichloro-β-[[2-[[[3-[(1,4,5,6-tetrahydropyrimidin-2-yl)amino]phenyl]carbonyl]amino]acetyl]amino]benzenepropanoate, trifluoroacetate salt], the IC50 came to 78900 nM in experiment [1] and 74.8 nM in experiment [2].

Take `Cc1cc(Br)cc(C(CC(=O)O)NC(=O)CNC(=O)c2cccc(NC(=N)N)c2)c1` (racemic) [Example 212, (±)β-[[2-[[[3-[(aminoiminomethyl)amino]phenyl]carbonyl]amino]acetyl]amino]-3-bromo-5-methylbenzenepropanoic acid, trifluoroacetate salt]: the figures for the IC50 in experiment [1] and in experiment [2] were 306 nM and 1.93 nM, respectively.
